Measured values taken from patent US20110028566A1, “COMPOSITIONS AND PRODUCTS CONTAINING CYCLOALIPHATIC DIOL ANTIMICROBIAL AGENTS AND METHODS OF USING THE COMPOSITIONS AND PRODUCTS” (EASTMAN CHEMICAL COMPANY, priority 2009, published 2011).

How the values were obtained:
Assay in all cases: Microbial challenge testing in BPW
Format in all cases: cell-based
Aeromonas sp. = system: Aeromonas sp.
How it was run: (§1)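 Bacteria, including ATCC and wild-type isolates from chemical products, were grown in tryptose soy broth with 1% dextrose for at least 96 hours. Inoculum was sized by plate count and turbidity (NTU) and added to test-material substrates to give 10^5 to 10^6 cfu/mL initially. Incubation ran 14 days at 35° C., then at room temperature.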

Bacillus subtilis = system: Bacillus subtilis
How it was run: as §1

Burkholderia cepacia = system: Burkholderia cepacia
How it was run: as §1

Escherichia coli = system: Escherichia coli
How it was run: as §1

Proteus vulgaris = system: Proteus vulgaris
How it was run: as §1

Pseudomonas aeruginosa = system: Pseudomonas aeruginosa
How it was run: as §1

Staphylococcus aureus = system: Staphylococcus aureus
How it was run: as §1

[1] = system: Staphylococcus epidermidis
How it was run: as §1

Streptococcus mutans = system: Streptococcus mutans
How it was run: as §1

Compound: CC1(C)C(O)C(C)(C)C1O (stereo not drawn) [TMCD, 2,2,4,4-tetramethyl-1,3-cyclobutanediol]
- Grade code Aeromonas sp (Aeromonas sp.; 0.5%, 3 days incubation): 5 (More than 10,000 colonies estimated (thus >100,000 cfu/mL))
- Grade code Aeromonas sp (Aeromonas sp.; 0.5%, 14 days incubation): 4 (1001 to 10,000 colonies (thus 10,000 cfu/mL to 100,000 cfu/mL))
- Grade code Aeromonas sp (Aeromonas sp.; 0.5%, 30 days incubation): 4 (1001 to 10,000 colonies (thus 10,000 cfu/mL to 100,000 cfu/mL))
- Grade code Aeromonas sp (Aeromonas sp.; 1.25%, 3 days incubation): 4 (1001 to 10,000 colonies (thus 10,000 cfu/mL to 100,000 cfu/mL))
- Grade code Aeromonas sp (Aeromonas sp.; 1.25%, 14 days incubation): 4 (1001 to 10,000 colonies (thus 10,000 cfu/mL to 100,000 cfu/mL))
- Grade code Aeromonas sp (Aeromonas sp.; 1.25%, 30 days incubation): 4 (1001 to 10,000 colonies (thus 10,000 cfu/mL to 100,000 cfu/mL))
- Grade code Aeromonas sp (Aeromonas sp.; 2.5%, 3 days incubation): 4 (1001 to 10,000 colonies (thus 10,000 cfu/mL to 100,000 cfu/mL))
- Grade code Aeromonas sp (Aeromonas sp.; 2.5%, 14 days incubation): 2 (52 to 100 colonies counted (thus 520 to 1000 cfu/mL))
- Grade code Aeromonas sp (Aeromonas sp.; 2.5%, 30 days incubation): 3 (101 to 1000 colonies (thus 1000 to 10,000 cfu/mL))
- Grade code B. subtilis (Bacillus subtilis; 0.5%, 3 days incubation): 4 (1001 to 10,000 colonies (thus 10,000 cfu/mL to 100,000 cfu/mL))
- Grade code B. subtilis (Bacillus subtilis; 0.5%, 14 days incubation): 4 (1001 to 10,000 colonies (thus 10,000 cfu/mL to 100,000 cfu/mL))
- Grade code B. subtilis (Bacillus subtilis; 0.5%, 30 days incubation): 4 (1001 to 10,000 colonies (thus 10,000 cfu/mL to 100,000 cfu/mL))
- Grade code B. subtilis (Bacillus subtilis; 1.25%, 3 days incubation): 4 (1001 to 10,000 colonies (thus 10,000 cfu/mL to 100,000 cfu/mL))
- Grade code B. subtilis (Bacillus subtilis; 1.25%, 14 days incubation): 4 (1001 to 10,000 colonies (thus 10,000 cfu/mL to 100,000 cfu/mL))
- Grade code B. subtilis (Bacillus subtilis; 1.25%, 30 days incubation): 4 (1001 to 10,000 colonies (thus 10,000 cfu/mL to 100,000 cfu/mL))
- Grade code B. subtilis (Bacillus subtilis; 2.5%, 3 days incubation): 4 (1001 to 10,000 colonies (thus 10,000 cfu/mL to 100,000 cfu/mL))
- Grade code B. subtilis (Bacillus subtilis; 2.5%, 14 days incubation): 4 (1001 to 10,000 colonies (thus 10,000 cfu/mL to 100,000 cfu/mL))
- Grade code B. subtilis (Bacillus subtilis; 2.5%, 30 days incubation): 4 (1001 to 10,000 colonies (thus 10,000 cfu/mL to 100,000 cfu/mL))
- Grade code B. cepacia (Burkholderia cepacia; 0.5%, 3 days incubation): 4 (1001 to 10,000 colonies (thus 10,000 cfu/mL to 100,000 cfu/mL))
- Grade code B. cepacia (Burkholderia cepacia; 0.5%, 14 days incubation): 4 (1001 to 10,000 colonies (thus 10,000 cfu/mL to 100,000 cfu/mL))
- Grade code B. cepacia (Burkholderia cepacia; 0.5%, 30 days incubation): 4 (1001 to 10,000 colonies (thus 10,000 cfu/mL to 100,000 cfu/mL))
- Grade code B. cepacia (Burkholderia cepacia; 1.25%, 3 days incubation): 3 (101 to 1000 colonies (thus 1000 to 10,000 cfu/mL))
- Grade code B. cepacia (Burkholderia cepacia; 1.25%, 14 days incubation): 2 (52 to 100 colonies counted (thus 520 to 1000 cfu/mL))
- Grade code B. cepacia (Burkholderia cepacia; 1.25%, 30 days incubation): 4 (1001 to 10,000 colonies (thus 10,000 cfu/mL to 100,000 cfu/mL))
- Grade code B. cepacia (Burkholderia cepacia; 2.5%, 3 days incubation): 1 (1 to 51 colonies counted (thus 10 to 510 cfu/mL))
- Grade code B. cepacia (Burkholderia cepacia; 2.5%, 14 days incubation): 0 (No growth detected or <1 colony (thus <10 cfu/mL))
- Grade code B. cepacia (Burkholderia cepacia; 2.5%, 30 days incubation): 0 (No growth detected or <1 colony (thus <10 cfu/mL))
- Grade code E. coli (Escherichia coli; 0.5%, 3 days incubation): 5 (More than 10,000 colonies estimated (thus >100,000 cfu/mL))
- Grade code E. coli (Escherichia coli; 0.5%, 14 days incubation): 4 (1001 to 10,000 colonies (thus 10,000 cfu/mL to 100,000 cfu/mL))
- Grade code E. coli (Escherichia coli; 0.5%, 30 days incubation): 4 (1001 to 10,000 colonies (thus 10,000 cfu/mL to 100,000 cfu/mL))
- Grade code E. coli (Escherichia coli; 1.25%, 3 days incubation): 4 (1001 to 10,000 colonies (thus 10,000 cfu/mL to 100,000 cfu/mL))
- Grade code E. coli (Escherichia coli; 1.25%, 14 days incubation): 4 (1001 to 10,000 colonies (thus 10,000 cfu/mL to 100,000 cfu/mL))
- Grade code E. coli (Escherichia coli; 1.25%, 30 days incubation): 4 (1001 to 10,000 colonies (thus 10,000 cfu/mL to 100,000 cfu/mL))
- Grade code E. coli (Escherichia coli; 2.5%, 3 days incubation): 4 (1001 to 10,000 colonies (thus 10,000 cfu/mL to 100,000 cfu/mL))
- Grade code E. coli (Escherichia coli; 2.5%, 14 days incubation): 4 (1001 to 10,000 colonies (thus 10,000 cfu/mL to 100,000 cfu/mL))
- Grade code E. coli (Escherichia coli; 2.5%, 30 days incubation): 4 (1001 to 10,000 colonies (thus 10,000 cfu/mL to 100,000 cfu/mL))
- Grade code P. vulqaris (Proteus vulgaris; 0.5%, 3 days incubation): 4 (1001 to 10,000 colonies (thus 10,000 cfu/mL to 100,000 cfu/mL))
- Grade code P. vulqaris (Proteus vulgaris; 0.5%, 13 days incubation): 4 (1001 to 10,000 colonies (thus 10,000 cfu/mL to 100,000 cfu/mL))
- Grade code P. vulqaris (Proteus vulgaris; 0.5%, 30 days incubation): 4 (1001 to 10,000 colonies (thus 10,000 cfu/mL to 100,000 cfu/mL))
- Grade code P. vulqaris (Proteus vulgaris; 1.25%, 3 days incubation): 3 (101 to 1000 colonies (thus 1000 to 10,000 cfu/mL))
- Grade code P. vulqaris (Proteus vulgaris; 1.25%, 13 days incubation): 2 (52 to 100 colonies counted (thus 520 to 1000 cfu/mL))
- Grade code P. vulqaris (Proteus vulgaris; 1.25%, 30 days incubation): 0 (No growth detected or <1 colony (thus <10 cfu/mL))
- Grade code P. vulqaris (Proteus vulgaris; 2.5%, 3 days incubation): 4 (1001 to 10,000 colonies (thus 10,000 cfu/mL to 100,000 cfu/mL))
- Grade code P. vulqaris (Proteus vulgaris; 2.5%, 13 days incubation): 1 (1 to 51 colonies counted (thus 10 to 510 cfu/mL))
- Grade code P. vulqaris (Proteus vulgaris; 2.5%, 30 days incubation): 0 (No growth detected or <1 colony (thus <10 cfu/mL))
- Grade code P. aeruginosa (Pseudomonas aeruginosa; 0.5%, 3 days incubation): 4 (1001 to 10,000 colonies (thus 10,000 cfu/mL to 100,000 cfu/mL))
- Grade code P. aeruginosa (Pseudomonas aeruginosa; 0.5%, 13 days incubation): 4 (1001 to 10,000 colonies (thus 10,000 cfu/mL to 100,000 cfu/mL))
- Grade code P. aeruginosa (Pseudomonas aeruginosa; 0.5%, 30 days incubation): 4 (1001 to 10,000 colonies (thus 10,000 cfu/mL to 100,000 cfu/mL))
- Grade code P. aeruginosa (Pseudomonas aeruginosa; 1.25%, 3 days incubation): 4 (1001 to 10,000 colonies (thus 10,000 cfu/mL to 100,000 cfu/mL))
- Grade code P. aeruginosa (Pseudomonas aeruginosa; 1.25%, 13 days incubation): 4 (1001 to 10,000 colonies (thus 10,000 cfu/mL to 100,000 cfu/mL))
- Grade code P. aeruginosa (Pseudomonas aeruginosa; 1.25%, 30 days incubation): 4 (1001 to 10,000 colonies (thus 10,000 cfu/mL to 100,000 cfu/mL))
- Grade code P. aeruginosa (Pseudomonas aeruginosa; 2.5%, 3 days incubation): 4 (1001 to 10,000 colonies (thus 10,000 cfu/mL to 100,000 cfu/mL))
- Grade code P. aeruginosa (Pseudomonas aeruginosa; 2.5%, 13 days incubation): 3 (101 to 1000 colonies (thus 1000 to 10,000 cfu/mL))
- Grade code P. aeruginosa (Pseudomonas aeruginosa; 2.5%, 30 days incubation): 4 (1001 to 10,000 colonies (thus 10,000 cfu/mL to 100,000 cfu/mL))
- Grade code S. aureus (Staphylococcus aureus; 0.5%, 3 days incubation): 4 (1001 to 10,000 colonies (thus 10,000 cfu/mL to 100,000 cfu/mL))
- Grade code S. aureus (Staphylococcus aureus; 0.5%, 14 days incubation): 4 (1001 to 10,000 colonies (thus 10,000 cfu/mL to 100,000 cfu/mL))
- Grade code S. aureus (Staphylococcus aureus; 0.5%, 30 days incubation): 4 (1001 to 10,000 colonies (thus 10,000 cfu/mL to 100,000 cfu/mL))
- Grade code S. aureus (Staphylococcus aureus; 1.25%, 3 days incubation): 4 (1001 to 10,000 colonies (thus 10,000 cfu/mL to 100,000 cfu/mL))
- Grade code S. aureus (Staphylococcus aureus; 1.25%, 14 days incubation): 4 (1001 to 10,000 colonies (thus 10,000 cfu/mL to 100,000 cfu/mL))
- Grade code S. aureus (Staphylococcus aureus; 1.25%, 30 days incubation): 4 (1001 to 10,000 colonies (thus 10,000 cfu/mL to 100,000 cfu/mL))
- Grade code S. aureus (Staphylococcus aureus; 2.5%, 3 days incubation): 2 (52 to 100 colonies counted (thus 520 to 1000 cfu/mL))
- Grade code S. aureus (Staphylococcus aureus; 2.5%, 14 days incubation): 1 (1 to 51 colonies counted (thus 10 to 510 cfu/mL))
- Grade code S. aureus (Staphylococcus aureus; 2.5%, 30 days incubation): 1 (1 to 51 colonies counted (thus 10 to 510 cfu/mL))
- Grade code S. epidermidis ([1]; 0.5%, 3 days incubation): 4 (1001 to 10,000 colonies (thus 10,000 cfu/mL to 100,000 cfu/mL))
- Grade code S. epidermidis ([1]; 0.5%, 13 days incubation): 4 (1001 to 10,000 colonies (thus 10,000 cfu/mL to 100,000 cfu/mL))
- Grade code S. epidermidis ([1]; 0.5%, 30 days incubation): 4 (1001 to 10,000 colonies (thus 10,000 cfu/mL to 100,000 cfu/mL))
- Grade code S. epidermidis ([1]; 1.25%, 3 days incubation): 2 (52 to 100 colonies counted (thus 520 to 1000 cfu/mL))
- Grade code S. epidermidis ([1]; 1.25%, 13 days incubation): 3 (101 to 1000 colonies (thus 1000 to 10,000 cfu/mL))
- Grade code S. epidermidis ([1]; 1.25%, 30 days incubation): 4 (1001 to 10,000 colonies (thus 10,000 cfu/mL to 100,000 cfu/mL))
- Grade code S. epidermidis ([1]; 2.5%, 3 days incubation): 2 (52 to 100 colonies counted (thus 520 to 1000 cfu/mL))
- Grade code S. epidermidis ([1]; 2.5%, 13 days incubation): 2 (52 to 100 colonies counted (thus 520 to 1000 cfu/mL))
- Grade code S. epidermidis ([1]; 2.5%, 30 days incubation): 2 (52 to 100 colonies counted (thus 520 to 1000 cfu/mL))
- Grade code S. mutans (Streptococcus mutans; 0.5%, 3 days incubation): 4 (1001 to 10,000 colonies (thus 10,000 cfu/mL to 100,000 cfu/mL))
- Grade code S. mutans (Streptococcus mutans; 0.5%, 13 days incubation): 4 (1001 to 10,000 colonies (thus 10,000 cfu/mL to 100,000 cfu/mL))
- Grade code S. mutans (Streptococcus mutans; 0.5%, 30 days incubation): 4 (1001 to 10,000 colonies (thus 10,000 cfu/mL to 100,000 cfu/mL))
- Grade code S. mutans (Streptococcus mutans; 1.25%, 3 days incubation): 4 (1001 to 10,000 colonies (thus 10,000 cfu/mL to 100,000 cfu/mL))
- Grade code S. mutans (Streptococcus mutans; 1.25%, 13 days incubation): 4 (1001 to 10,000 colonies (thus 10,000 cfu/mL to 100,000 cfu/mL))
- Grade code S. mutans (Streptococcus mutans; 1.25%, 30 days incubation): 4 (1001 to 10,000 colonies (thus 10,000 cfu/mL to 100,000 cfu/mL))
- Grade code S. mutans (Streptococcus mutans; 2.5%, 3 days incubation): 3 (101 to 1000 colonies (thus 1000 to 10,000 cfu/mL))
- Grade code S. mutans (Streptococcus mutans; 2.5%, 13 days incubation): 1 (1 to 51 colonies counted (thus 10 to 510 cfu/mL))
- Grade code S. mutans (Streptococcus mutans; 2.5%, 30 days incubation): 0 (No growth detected or <1 colony (thus <10 cfu/mL))
